# In patent US7807368B2, “Cyclin-dependent kinase inhibitors as targets for opiod growth factor treatment” (priority 2006, dated 2010):
# How the values were obtained:
# Assay type in all cases: cell-based, human
# SCC-1 cells [1] = test: siRNA knockdown of OGFr, growth of SCC-1 cells
# Procedure: siRNA knockdown of OGFr. […] For transfection, 5×10^4 cells per well were seeded in 6-well plates containing 1 ml of serum-containing media without antibiotics. In each well, 20 nM OGFr-siRNA or control siRNA solutions in serum-free media were added. Cells were incubated for 4 h at 37° C. prior to the addition of OGF. Cultures were incubated an additional 20 h, and then 1 ml fresh complete media either lacking or containing OGF was added. […] Two independent experiments were conducted. The control siRNAs were purchased from Ambion.
# p21 = test: Western blot of p21, p27 and Cdk2 in BxPC-3 cells; details: synchronized BxPC-3 cells, 9 hours, 10^-6 M OGF, 10^-5 M naloxone
# Procedure: (§1) Synchronized cells (2×10^6) from each treatment were solubilized in 200 μl RIPA buffer (1×PBS, 10 μM IGEPAL, 1 mg/ml SDS, 5 mg/ml deoxycholic acid), containing protease and phosphatase inhibitors (2 μg/ml aprotinin, 3 mg/ml phenylmethyl sulfonyl fluoride, 1 mM sodium orthovanidate, 1 μM okadaic acid). Total protein concentrations were measured using the DC protein assay kit (Bio-Rad Laboratories, Hercules, Calif.). Equal amounts of protein (40 μg) were subjected to 10% SDS-PAGE followed by transfer of proteins onto polyvinylidene difluoride (Millipore, Billerica, Mass.) using standard protocols.
# The following antibodies were purchased from commercial sources: phospho-Rb (Ser795), phospho-Rb (Ser807/811) (Cell Signaling Technology, Beverly, Mass.); Cdk2, p57 (Santa Cruz Biotechnology, Santa Cruz, Calif.); p21, p27, total Rb (BD PharMingen, San Diego, Calif.); β-actin (Clone AC-15, Sigma-Aldrich).
# Membranes were probed with secondary anti-rabbit or anti-mouse horseradish peroxidase-conjugated antibodies (GE Healthcare-Amersham Biosciences, Piscataway, N.J.), and developed using a chemiluminescence Western blotting detection system.
# To determine equal loading of total protein samples, blots were re-probed with monoclonal antibody against β-actin at a dilution of 1:2000. If necessary, membranes were processed in stripping buffer (62.5 mM Tris-HCI and 100 mM β-mercaptoethanol/2% SDS, pH 6.7) at 50° C. before being re-probed.
# To quantify expression levels or kinase activity, the optical density of each band was determined by densitometry and analyzed by QuickOne (Bio-Rad Laboratories). Each value was normalized to β-actin from the same blot. To report the changes due to OGF treatment, we calculated the fold increase by dividing the normalized value from the OGF treated samples by the normalized value of control samples at each time point; thus, increases due to OGF have values greater than one, and decreases due to OGF have values less than one. For all Western blot analyses, 3 or more independent experiments were performed.
# The p21-targeted siRNAs were obtained from Santa Cruz Biotechnology, and negative control siRNAs were purchased from Ambion (Ambion, Inc., Austin, Tex.). For transfection, 2×10^5 cells per well were seeded in 6-well plates containing 1 ml of media without antibiotics. For each well, 1 μl of siRNA stock (20 μM) was mixed with 175 μl of serum-free media. Two μl of Oligofectamine reagent (Invitrogen, Carlsbad, Calif.) was added to prewashed cells in each well, making the final concentration for siRNA approximately 20 nM. Cells were incubated for 4 hours at 37° C. prior to the addition of OGF. Eighteen hours later, 1 ml fresh complete media with or without OGF was added to the cultures; media and OGF were replaced daily. At the indicated time points, cells were collected for growth curves or Western blotting.
# p16 [2] = test: Western blot of p16, other CKIs and Cdk4 in SCC-1 cells; details: for p16 expression: synchronized SCC-1 cells, 3 h, 10^-6 M OGF, 10^-5 M naloxone
# Procedure: Synchronized cells (˜2×10^6) from each treatment were solubilized in 200 μl RIPA buffer (1×PBS, 10 μM IGEPAL, 1 mg/ml SDS, 5 mg/ml deoxycholic acid), containing protease and phosphatase inhibitors (2 μg/ml aprotinin, 3 mg/ml phenylmethyl sulfonyl fluoride (PMSF), 1 mM sodium orthovanidate, 1 μM okadaic acid). Total protein concentrations were measured using the DC protein assay kit (Bio-Rad Laboratories, Hercules, Calif.). Equal amounts of protein (40 μg) were subjected to 10% SDS-PAGE followed by transfer of proteins onto polyvinylidene difluoride (Millipore, Billerica, Mass.) using standard protocols. The following antibodies were purchased from commercial sources: phospho-Rb (Ser795), phospho-Rb (Ser807/811) (Cell Signaling Technology, Beverly, Mass.); phospho-Rb (Thr821) (Biosource, Camarillo, Calif.); Cdk4, cyclin D1, p15, p16, p18, p19 (Santa Cruz Biotechnology, Santa Cruz, Calif.); total Rb, p21, p27 (BD PharMingen, San Diego, Calif.); β-actin (Clone AC-15, Sigma). The following dilutions of primary antibodies were used to detect respective proteins. 1:200 phospho-Rb (Ser795), 1:200 phospho-Rb (Ser807/811); 1:200 phospho-Rb (Thr821); 1:200 Cdk4, 1:200 cyclin D1, 1:100 p16; 1:200 total Rb, 1:200 p21, 1:100 p27. Membranes were probed with secondary anti-rabbit or anti-mouse horseradish peroxidase-conjugated antibodies (GE Healthcare-Amersham Biosciences, Piscataway, N.J.); blots were developed using a chemiluminescence Western blotting detection system (GE Healthcare-Amersham Biosciences).
# To determine equal loading of total protein samples, blots were reprobed with monoclonal antibody against β-actin at a dilution of 1:2000. If necessary, membranes were stripped in stripping buffer (62.5 mM Tris-HCl and 100 mM β-mercaptoethanol/2% SDS, pH 6.7) at 50° C. before being re-probed. Means and SE were determined from 3 or more independent experiments.
# To quantify expression levels or kinase activity, the optical density of each band was determined by densitometry and analyzed by QuickOne (Bio-Rad Laboratories). Each value was normalized to β-actin from the same blot. To report the changes due to OGF treatment, the fold increase was calculated by dividing the normalized value from the OGF treated samples by the normalized value of control samples at each time point; thus, increases due to OGF have values greater than one, and decreases due to OGF have values less than one.
# (§2) The p16-targeted siRNAs (antisense:5′ […]-3′; sense (SEQ ID NO:5): 5′ […]-3′(SEQ ID NO:6) were obtained as ready-annealed, purified duplex probes (Invitrogen, Carlsbad, Calif.). For transfection, 2×10^5 cells per well were seeded in 6-well plates containing 1 ml of serum-free media without antibiotics. In each well, 20 nM of p16-siRNA or control siRNA solutions in serum-free media were added. Cells were incubated for 4 h at 37° C. prior to the addition of OGF. Cultures were incubated for additional 20 h, and then 1 ml fresh complete media either lacking or containing OGF was added. At the indicated time points, cells were collected for growth curves or Western blotting. Three or more independent experiments were conducted. The control siRNAs were purchased from Ambion.
# p16 [3] = test: Western blot of p16 in SCC-4 cells; details: SCC-4 cells transfected with p16 siRNAs, 72 h
# Procedure: (§3) The SCC-1 (UM-SCC-1) cell line was obtained from the University of Michigan Cancer Research Laboratory, and CAL-27 and SCC-4 cells were obtained from the American Type Culture Collection (Manassas, Va.). SCC-1 and CAL-27 cells were cultured in DMEM media, whereas SCC-4 cells were grown in 1:1 Hams F-12 DMEM media. All media was supplemented with 10% fetal bovine serum (HyClone, Logan, Utah), 1.2% sodium bicarbonate, and 5000 units/ml penicillin, 5 μg/ml streptomycin and 10 μg/ml neomycin. OGF was purchased from Sigma-Aldrich (St. Louis, Mo.), dissolved in sterile water, and used at a final concentration of 10^−6 M.
# as §1, with “(˜2×10^6)” for “(2×10^6)”, “fluoride (PMSF),” for “fluoride,”, “protocols. […]” for “protocols.”
# p16 [4] = test: Western blot of p16 in CAL-27 cells; details: CAL-27 cells transfected with p16 siRNA
# Procedure: as §3
# as §1, with “(˜2×10^6)” for “(2×10^6)”, “fluoride (PMSF),” for “fluoride,”, “protocols. […]” for “protocols.”
# SCC-1 cells [5] = test: Growth of SCC-1 cells transfected with p16 siRNA or negative control siRNA; details: SCC-1 cells transfected with p16 siRNA, exposed to OGF for 96 h
# Procedure: as §2
compound,measurement,setting,value
O=C1CC[C@@]2(O)[C@H]3Cc4ccc(O)c5c4[C@@]2(CCN3CC2CC2)[C@H]1O5 [NTX],effect on growth of OGFr-siRNA cultures,"SCC-1 cells [1]; SCC-1 cells subjected to OGFr-siRNA, 10^-6 M",no further effects
same,increase in number of cells,"SCC-1 cells [1]; control siRNA-exposed SCC-1 cells, 10^-6 M, 96 h",27%
same,increase in number of cells,"SCC-1 cells [1]; wt SCC-1 cells, 10^-6 M, 96 h",24%
C=CCN1CC[C@]23c4c5ccc(O)c4O[C@H]2C(=O)CC[C@@]3(O)[C@H]1C5 [naloxone],p21 expression,p21,no effect
same,p21 expression,p21; listed as NAL,no change
same,p16 expression,p16 [2],no effect
same,p16 expression,p16 [2]; listed as NAL,no change
"OGFr-siRNA: OGFr-targeted siRNA duplex (SEQ ID NO:3 and 4) from Ambion (chain 1 UAGAAACUCAGGUUUGGCG; chain 2 CGCCAAACCUGAGUUUCUA; listed as RNA, chemistry not given here)",more cells than wt and control siRNA-treated cultures,"SCC-1 cells [1]; 20 nM siRNA, 96 h",approximately 19%
p16 siRNA: p16-targeted siRNA duplex (SEQ ID NO:5 and 6) from Invitrogen (chain 1 ACACCGCUUCUGCCUUUUCUU; chain 2 GAAAAGGCAGAAGCGGUGUUU; chemistry not given here),p16 protein level compared to control cells,p16 [3],significantly reduced levels
same,p16 levels relative to control cells,p16 [4],significantly reduced p16 levels
same,p16 protein level compared to untransfected cells,"p16 [2]; SCC-1 cells transfected with p16 siRNA, after 72 h",significantly reduced levels
same,effect of p16 knockdown on OGF growth inhibition,SCC-1 cells [5],blocked OGF inhibitory action
